Test results published in the NIST ThermoML archive (doi:10.1021/je4006739).
Numbers after ± are expanded uncertainties.

Details: Liquid; for mass density: 293.15 K, 101.33 kPa, Vibrating tube method; for Normal boiling temperature: Ebulliometric method (Recirculating still)

SMILES	mass density [kg/m3]	Normal boiling temperature [°C]
C[S+](C)[O-] [dimethyl sulfoxide]	1092.48 ± 0.27	189.10 ± 1
CCc1ccccc1 [ethylbenzene]	863.64 ± 0.23	136.10 ± 1
CCOCCO [2-ethoxyethan-1-ol]	928.92 ± 0.23	135.20 ± 1
